Assay type in all cases: cell-based
Assay [1] deals with methicillin-resistant Staphylococcus aureus (MRSA). Nature of the assay: MIC, two-fold agar dilution (CLSI), clinical isolates. Particulars: for Measured MIC: Table 8, strain and unit inferred, MRSA. The text has this: (§1) 1. The invention adopts the two-fold agar dilution method recommended by the operating procedure of antimicrobial susceptibility testing set by American Clinical and Laboratory Standards Institute (CLSI) to determine the Minimum Inhibitory Concentration (MIC) of the test samples against the tested strains.

Assay [2] concerns Escherichia coli (including ESBLs, non-ESBLs). The assay is described as above.
Description: as §1

Assay [3] concerns methicillin-sensitive Staphylococcus aureus (MSSA). Described as above.
Description: as §1

The test system of assay [4] is methicillin-sensitive Staphylococcus epidermidis (MSSE). Described as above.
Description: as §1

Assay [5] deals with Enterococcus faecalis (EFA). The description is as above.
Description: as §1

The test system of assay [6] is methicillin-resistant Staphylococcus epidermidis (MRSE). Described as above.
Description: as §1

The test system of assay [7] is HCT-116 colorectal cancer cell line. Nature of the assay: CCK-8 proliferation inhibition. As to conditions: Homo sapiens, HCT-116, 72 h, read-out: HCT116 inhibition rate/%. As to the method:
(1) HCT-116 colorectal cancer cell line, A549 lung cancer cell line, MGC-803 gastric cancer cell line, BEL-7402 liver cancer cell line, Jurkat T cell leukemia cell line, HL60 acute myeloid leukemia cell line, Hela cervical cancer cell line, MCF-7 breast cancer cell line, PC3 prostate cancer cell line and SAOS-2 osteosarcoma cell line were made into single cell suspension, 180 μL of which was inoculated into 96-well culture plate, which was cultured overnight in CO2 incubator (37° C., 5% CO2, 95% air).
(2) Each of the spiro three-membered ring, spiro five membered ring peptide deformylase inhibitors was dissolved in DMSO, and was further formulated into drug solution with required different final concentration using corresponding cell culture medium. The drug solutions were added to the above cells respectively (20 μL/well), with the control group added with 1‰ DMSO, and cultured in a CO2 incubator for 72 hours.
(3) After incubation for 72 hours, the culture solution was decanted, and 100 μL of 1:10 diluted CCK-8 solution was added.
Wherein, in step (1), the concentration of the single cell suspension was 2000 cells/well.
Wherein, in step (2), HCT-116 cells were cultured in McCoy's 5A medium (containing 10% newborn bovine serum, 1% double antibody); A549 and PC3 cells were cultured in F12 medium (containing 10% newborn bovine serum, 1% double antibody); MGC-803, BEL-7402, SAOS-2, Jurkat and HL60 cells were cultured in 1640 medium (containing 10% newborn bovine serum, 1% double antibody); and MCF-7 and Hela cells were cultured in DMEM high glucose medium (containing 10% newborn bovine serum, 1% double antibody).

The subject of assay [8] is Enterococcus faecium (EFM). Put plainly: MIC, two-fold agar dilution (CLSI), clinical isolates.
Description: as §1
On the technique in general: Agar dilution tests growth on a series of plates holding different concentrations.

The test system of assay [9] is Moraxella catarrhalis (BCA). The assay is described as above.
Description: as §1

Assay [10] concerns Streptococcus pneoumoniae (SPN). Described as above.
Description: as §1

The mark [11] stands for this setting: strain printed MRSA 14-1 (second line of that name, r23, before MRSE 14-2).

≈ marks a conversion by molar mass, not a printed value. Where two headings read alike, the source gives them in different places.

Turning to `CCCC[C@H](CN(O)C=O)C(=O)N1CCC[C@H]1C(=O)Nc1ccc(F)c[n+]1[O-]` [A, reference compound], the Measured MIC in assay [1] stood at 0.5 µg/mL.
The same measure, in the same setting: as for `CCCC[C@H](CN(O)C=O)C(=O)N1CC=C[C@H]1C(=O)Nc1ccc(F)c[n+]1[O-]` [B, reference compound], the figure is 1 µg/mL; as for `C=C1C[C@@H](C(=O)Nc2ccc(F)c[n+]2[O-])N(C(=O)[C@H](CCCC)CN(O)C=O)C1` [C, reference compound], 0.5 µg/mL; as for `CCCC[C@H](CN(O)C=O)C(=O)N1CC2(CC2)C[C@H]1C(=O)Nc1ccc(F)c[n+]1[O-]` [D], 0.125 µg/mL.
Take `CCCC[C@H](CN(O)C=O)C(=O)N1CC2(CC2)C[C@H]1C(=O)Nc1cc[nH]n1` [Example 1]: the MIC (anti-bacterial activity) in assay [2] (strain ECO+ 14-1) was 16 µg/mL (≈ 42.4 µM); in assay [2] (strain ECO+ 14-2), 128 µg/mL (≈ 339 µM); in assay [2] (strain ECO− 14-1) it was > 128 µg/mL; in assay [2] (strain ECO− 14-2), > 128 µg/mL; in assay [1] (strain MRSA 14-1), 16 µg/mL (≈ 42.4 µM); in assay [1] (strain MRSA 14-2), 32 µg/mL (≈ 84.8 µM). The MIC (anti-bacterial activity) in assay [1] (strain MRSA 14-4) came out at 16 µg/mL (≈ 42.4 µM); in assay [1] (strain MRSA 14-5), 8 µg/mL (≈ 21.2 µM); in assay [1] (setting [11]), 8 µg/mL (≈ 21.2 µM); in assay [3] (strain MSSA 14-1) it was 16 µg/mL (≈ 42.4 µM); in [3] (strain MSSA 14-2), 16 µg/mL (≈ 42.4 µM); in [3] (strain MSSA 14-3), 16 µg/mL (≈ 42.4 µM). Also, the MIC (anti-bacterial activity) in assay [3] (strain MSSA 14-4) was found to be 16 µg/mL (≈ 42.4 µM); in assay [4] (strain MSSE 14-1) it was 4 µg/mL (≈ 10.6 µM); in [4] (strain MSSE 14-2), 16 µg/mL (≈ 42.4 µM); in assay [4] (strain MSSE 14-3), 4 µg/mL (≈ 10.6 µM); in assay [4] (strain MSSE 14-4), 4 µg/mL (≈ 10.6 µM); in assay [5] (strain EFA 14-1), 64 µg/mL (≈ 170 µM). For the same compound, the MIC (anti-bacterial activity) in assay [5] (strain EFA 14-2) was 64 µg/mL (≈ 170 µM); in assay [5] (strain EFA 14-3), 64 µg/mL (≈ 170 µM); in assay [5] (strain EFA 14-5), > 128 µg/mL; in assay [6] (strain MRSE 14-2), 8 µg/mL (≈ 21.2 µM); in assay [6] (strain MRSE 14-3), 4 µg/mL (≈ 10.6 µM); in assay [6] (strain MRSE 14-4) it was 8 µg/mL (≈ 21.2 µM). For the same compound, in [7], the inhibition at 30 µM was 7%.
As for `CCCC[C@H](CN(O)C=O)C(=O)N1CC2(CC2)C[C@H]1C(=O)Nc1ncccc1F` [Example 5], the MIC (anti-bacterial activity) in assay [2] (strain ECO+ 14-1) is 2 µg/mL (≈ 4.92 µM); in [2] (strain ECO+ 14-2), 64 µg/mL (≈ 157 µM); in assay [2] (strain ECO− 14-1), > 64 µg/mL; in assay [2] (strain ECO− 14-2), 64 µg/mL (≈ 157 µM); in [1] (strain MRSA 14-1) it was 0.5 µg/mL (≈ 1.23 µM); in assay [1] (strain MRSA 14-2), 0.5 µg/mL (≈ 1.23 µM). Further, the MIC (anti-bacterial activity) in assay [1] (strain MRSA 14-4) came out at 0.5 µg/mL (≈ 1.23 µM); in [1] (strain MRSA 14-5) it was 0.25 µg/mL (≈ 0.615 µM); in assay [1] (setting [11]) it was 0.25 µg/mL (≈ 0.615 µM); in assay [3] (strain MSSA 14-1), 0.5 µg/mL (≈ 1.23 µM); in [3] (strain MSSA 14-2) it was 0.5 µg/mL (≈ 1.23 µM); in [3] (strain MSSA 14-3), 0.5 µg/mL (≈ 1.23 µM). Further, the MIC (anti-bacterial activity) amounted to 0.5 µg/mL (≈ 1.23 µM) in [3] (strain MSSA 14-4); 0.125 µg/mL (≈ 0.308 µM) in [4] (strain MSSE 14-1); 0.25 µg/mL (≈ 0.615 µM) in [4] (strain MSSE 14-2); 0.25 µg/mL (≈ 0.615 µM) in assay [4] (strain MSSE 14-3); 0.25 µg/mL (≈ 0.615 µM) in assay [4] (strain MSSE 14-4); 2 µg/mL (≈ 4.92 µM) in [5] (strain EFA 14-1). Besides, the MIC (anti-bacterial activity) in assay [5] (strain EFA 14-2) is 2 µg/mL (≈ 4.92 µM); in [5] (strain EFA 14-3), 2 µg/mL (≈ 4.92 µM); in assay [5] (strain EFA 14-5), 2 µg/mL (≈ 4.92 µM); in assay [6] (strain MRSE 14-2) it was 0.25 µg/mL (≈ 0.615 µM); in assay [6] (strain MRSE 14-3), 0.125 µg/mL (≈ 0.308 µM); in assay [6] (strain MRSE 14-4) it was 0.5 µg/mL (≈ 1.23 µM). Moreover, the inhibition at 30 µM in assay [7] (concentration of 30 μM, 72 hours, CCK-8) is -15%.
`C[C@H]1COc2c(N3CCN(C)CC3)c(F)cc3c(=O)c(C(=O)O)cn1c23` [levofloxacin, reference compound]: the Anti-bacterial activity (MIC) in assay [8] (strain EFM 15-1) is > 128 µg/mL; in assay [8] (strain EFM 15-2) it was > 128 µg/mL; in [8] (strain EFM 15-3), > 128 µg/mL; in [8] (strain EFM 15-4), > 128 µg/mL; in assay [8] (strain EFM 15-5), > 128 µg/mL; in assay [8] (strain EFM 15-6), 128 µg/mL. Besides, the Anti-bacterial activity (MIC) turned out to be 64 µg/mL in assay [2] (strain ECO+ 15-2); 1 µg/mL in assay [2] (strain ECO+ 15-4); 0.03 µg/mL in [2] (strain ECO− 15-1); 128 µg/mL in assay [2] (strain ECO− 15-2); 0.06 µg/mL in [2] (strain ECO− 15-3); 0.06 µg/mL in assay [2] (strain ECO− 15-4). The Anti-bacterial activity (MIC) in assay [9] (strain BCA 14-1) is 1 µg/mL; in assay [9] (strain BCA 14-5), 4 µg/mL; in assay [9] (strain BCA 14-6), 8 µg/mL; in assay [9] (strain BCA 14-8), 1 µg/mL; in [1] (strain MRSA 15-1), 64 µg/mL; in assay [1] (strain MRSA 15-2), > 128 µg/mL. Moreover, the Anti-bacterial activity (MIC) is > 128 µg/mL in assay [1] (strain MRSA 15-3); > 128 µg/mL in assay [1] (strain MRSA 15-4); 16 µg/mL in assay [3] (strain MSSA 15-3); 0.5 µg/mL in [3] (strain MSSA 15-4); 64 µg/mL in assay [3] (strain MSSA 15-5); 16 µg/mL in assay [3] (strain MSSA 15-6). Besides, the Anti-bacterial activity (MIC) in assay [4] (strain MSSE 15-3) is 0.5 µg/mL; in [4] (strain MSSE 15-4), 0.5 µg/mL; in assay [4] (strain MSSE 15-5) it was 0.5 µg/mL; in [4] (strain MSSE 15-6), 0.25 µg/mL; in assay [5] (strain EFA 15-1), > 128 µg/mL; in assay [5] (strain EFA 15-2), > 128 µg/mL. For the same compound, the Anti-bacterial activity (MIC) in [5] (strain EFA 15-4) was 1 µg/mL; in assay [5] (strain EFA 15-5), 1 µg/mL; in assay [5] (strain EFA 15-6), > 128 µg/mL; in assay [5] (strain EFA 15-9), 128 µg/mL; in assay [10] (strain SPN 16-2), 1 µg/mL; in assay [10] (strain SPN 16-4), 1 µg/mL. For the same compound, the Anti-bacterial activity (MIC) in [6] (strain MRSE 15-1), in assay [6] (strain MRSE 15-2), in [6] (strain MRSE 15-3) and in [6] (strain MRSE 15-7) was 16 µg/mL throughout.

Values taken from patent publication US10738028B2, “Spiro three-membered ring, spiro five-membered ring peptide deformylase inhibitor and use thereof in antibacteria and anti-tumor” (priority 2016, dated 2020).
